# Reference: the supplement of paper PMC10307832
# Legend:
# Test in all cases: relative viability (nuclei count vs DMSO), 5 days (fraction); higher = more cells survive
# [1] = system: ABC-1
# In short: (§1)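 Nuclei were stained with Hoechst during a one-step fixation (final 0.05% Triton X-100, 1% formaldehyde, 1 ug/ml Hoechst) carried out 5 days after dosing, then counted on 4× images. The cells, lung cancer lines in 1536-well plates, had been dosed by pin tool the day after seeding with one drug alone or a fixed anchor-drug dose plus five library-drug doses (not always all listed) in √10 steps. Relative viability is the nuclei count in treated wells divided by that in vehicle wells, and each value is the median of duplicate plates.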
# [2] = system: CAL-12T
# In short: as §1
# [3] = system: COR-L 105
# In short: as §1
# [4] = system: ChaGo-K-1
# In short: as §1
# [5] = system: EMC-BAC-2
# In short: as §1
# [6] = system: EPLC-272H
# In short: as §1
# [7] = system: HCC-15
# In short: as §1
# [8] = system: HCC-78
# In short: as §1
# [9] = system: HOP-62
# In short: as §1
# [10] = system: LXF-289
# In short: as §1
# [11] = system: NCI-H1666
# In short: as §1
# [12] = system: NCI-H1755
# In short: as §1
# [13] = system: NCI-H1915
# In short: as §1
# [14] = system: NCI-H1975
# In short: as §1
# [15] = system: NCI-H1993
# In short: as §1
# [16] = system: NCI-H2023
# In short: as §1
# [17] = system: NCI-H2085
# In short: as §1
# [18] = system: NCI-H2126
# In short: as §1
# [19] = system: NCI-H3122
# In short: as §1
# [20] = system: NCI-H322M
# In short: as §1
# [21] = system: NCI-H358
# In short: as §1
# [22] = system: NCI-H441
# In short: as §1
# [23] = system: UMC-11
# In short: as §1
structure (smiles),measurement,setting,value
O=C(O)c1ccc(-c2c[nH]c3ncc(-c4ccccc4)cc23)cc1C1CCCC1 + CC(=O)c1c(C)c2cnc(Nc3ccc(N4CCNCC4)cn3)nc2n(C2CCCC2)c1=O [Palbociclib] (partner 0.5 µM),relative viability,[1]; first compound 0.04 µM,0.674
same,relative viability,[1]; first compound 0.1265 µM,0.892
same,relative viability,[1]; first compound 0.4 µM,0.551
same,relative viability,[1]; first compound 1.265 µM,0.742
same,relative viability,[2]; first compound 0.04 µM,0.496
same,relative viability,[2]; first compound 0.1265 µM,0.442
same,relative viability,[2]; first compound 0.4 µM,0.499
same,relative viability,[2]; first compound 1.265 µM,0.384
same,relative viability,[3]; first compound 0.04 µM,0.422
same,relative viability,[3]; first compound 0.1265 µM,0.392
same,relative viability,[3]; first compound 0.4 µM,0.349
same,relative viability,[3]; first compound 1.265 µM,0.411
same,relative viability,[4]; first compound 0.04 µM,0.958
same,relative viability,[4]; first compound 0.1265 µM,0.966
same,relative viability,[4]; first compound 0.4 µM,0.945
same,relative viability,[4]; first compound 1.265 µM,0.834
same,relative viability,[5]; first compound 0.04 µM,0.534
same,relative viability,[5]; first compound 0.1265 µM,0.544
same,relative viability,[5]; first compound 0.4 µM,0.529
same,relative viability,[5]; first compound 1.265 µM,0.519
same,relative viability,[6]; first compound 0.04 µM,0.337
same,relative viability,[6]; first compound 0.1265 µM,0.332
same,relative viability,[6]; first compound 0.4 µM,0.321
same,relative viability,[6]; first compound 1.265 µM,0.294
same,relative viability,[7]; first compound 0.04 µM,0.793
same,relative viability,[7]; first compound 0.1265 µM,0.762
same,relative viability,[7]; first compound 0.4 µM,0.631
same,relative viability,[7]; first compound 1.265 µM,0.431
same,relative viability,[8]; first compound 0.04 µM,0.494
same,relative viability,[8]; first compound 0.1265 µM,0.467
same,relative viability,[8]; first compound 0.4 µM,0.488
same,relative viability,[8]; first compound 1.265 µM,0.435
same,relative viability,[9]; first compound 0.04 µM,0.426
same,relative viability,[9]; first compound 0.1265 µM,0.414
same,relative viability,[9]; first compound 0.4 µM,0.443
same,relative viability,[9]; first compound 1.265 µM,0.434
same,relative viability,[10]; first compound 0.04 µM,0.573
same,relative viability,[10]; first compound 0.1265 µM,0.584
same,relative viability,[10]; first compound 0.4 µM,0.57
same,relative viability,[10]; first compound 1.265 µM,0.521
same,relative viability,[11]; first compound 0.04 µM,0.604
same,relative viability,[11]; first compound 0.1265 µM,0.622
same,relative viability,[11]; first compound 0.4 µM,0.609
same,relative viability,[11]; first compound 1.265 µM,0.547
same,relative viability,[12]; first compound 0.04 µM,0.434
same,relative viability,[12]; first compound 0.1265 µM,0.495
same,relative viability,[12]; first compound 0.4 µM,0.417
same,relative viability,[12]; first compound 1.265 µM,0.48
same,relative viability,[13]; first compound 0.04 µM,0.553
same,relative viability,[13]; first compound 0.1265 µM,0.527
same,relative viability,[13]; first compound 0.4 µM,0.452
same,relative viability,[13]; first compound 1.265 µM,0.428
same,relative viability,[14]; first compound 0.04 µM,0.588
same,relative viability,[14]; first compound 0.1265 µM,0.55
same,relative viability,[14]; first compound 0.4 µM,0.585
same,relative viability,[14]; first compound 1.265 µM,0.475
same,relative viability,[15]; first compound 0.04 µM,0.62
same,relative viability,[15]; first compound 0.1265 µM,0.601
same,relative viability,[15]; first compound 0.4 µM,0.596
same,relative viability,[15]; first compound 1.265 µM,0.537
same,relative viability,[16]; first compound 0.04 µM,0.407
same,relative viability,[16]; first compound 0.1265 µM,0.394
same,relative viability,[16]; first compound 0.4 µM,0.358
same,relative viability,[16]; first compound 1.265 µM,0.312
same,relative viability,[17]; first compound 0.04 µM,0.448
same,relative viability,[17]; first compound 0.1265 µM,0.476
same,relative viability,[17]; first compound 0.4 µM,0.457
same,relative viability,[17]; first compound 1.265 µM,0.349
same,relative viability,[18]; first compound 0.04 µM,0.361
same,relative viability,[18]; first compound 0.1265 µM,0.358
same,relative viability,[18]; first compound 0.4 µM,0.369
same,relative viability,[18]; first compound 1.265 µM,0.345
same,relative viability,[19]; first compound 0.04 µM,0.201
same,relative viability,[19]; first compound 0.1265 µM,0.175
same,relative viability,[19]; first compound 0.4 µM,0.174
same,relative viability,[19]; first compound 1.265 µM,0.198
same,relative viability,[20]; first compound 0.04 µM,0.466
same,relative viability,[20]; first compound 0.1265 µM,0.461
same,relative viability,[20]; first compound 0.4 µM,0.448
same,relative viability,[20]; first compound 1.265 µM,0.461
same,relative viability,[21]; first compound 0.04 µM,0.128
same,relative viability,[21]; first compound 0.1265 µM,0.12
same,relative viability,[21]; first compound 0.4 µM,0.124
same,relative viability,[21]; first compound 1.265 µM,0.0876
same,relative viability,[22]; first compound 0.04 µM,0.248
same,relative viability,[22]; first compound 0.1265 µM,0.232
same,relative viability,[22]; first compound 0.4 µM,0.223
same,relative viability,[22]; first compound 1.265 µM,0.22
same,relative viability,[23]; first compound 0.04 µM,0.286
same,relative viability,[23]; first compound 0.1265 µM,0.312
same,relative viability,[23]; first compound 0.4 µM,0.333
same,relative viability,[23]; first compound 1.265 µM,0.332
